The values below come from US20140142352A1, “BUTANOL PURIFICATION” (BUTAMAX ADVANCED BIOFUELS LLC, priority 2012, published 2014).

Read-outs that look alike come from different tables or passages of the source.

A short description of data set [1]: Reactive liquid-liquid extraction from aqueous compound solution into OA or OA with TBP, TOA or A336: aqueous concentrations. The format is physicochemical. As to conditions: pH=5.3, 30° C.
Experimental: The emulsions were rigorously vortexed and incubated at 30° C. and 300 rpm for 30 minutes. The emulsions were rigorously vortexed again, 1 mL sample was withdrawn and centrifuged in an Eppendorf table top centrifuge for 5 minutes at 16,000 rpm. Samples were taken from the top (extractant) as well as bottom (aqueous broth) phase and stored in the freezer at −20° C. for further analysis. […] The flow rate was 0.08 ml/min, column temperature was 60° C., the injection volume was 10 ul and the sample run time was 38 minutes.
Another data set has as its system isobutanologen PNY 2242. Nature of the data set: SSF corn mash fermentation of isobutanologen with extractant layer. The class given is cell-based.
The conditions of data set [2]: 30 min, pH 5.3.
Experimental: The emulsions were rigorously vortexed and incubated at 30° C. and 300 rpm for 30 minutes. The emulsions were rigorously vortexed again, 1 mL sample was withdrawn and centrifuged in an Eppendorf table top centrifuge for 5 minutes at 16,000 rpm. Samples were taken from the top (extractant) as well as bottom (aqueous broth) phase and stored in the freezer at −20° C. for further analysis.
Aqueous broth samples were filtered through a 0.20 μm filter (Nanosept MF, Pall) and analyzed by HPLC. […] The flow rate was 0.08 ml/min, column temperature was 60° C., the injection volume was 10 ul and the sample run time was 38 minutes.
In subsequent calculations, the volume of water was corrected for the extracted volume, but no volume increase of the diluent was considered.
Partitioning of the deprotonated form of the acid was neglected, and only the protonated form was assumed to transition into the diluent oleyl alcohol.
The next data set concerns anaerobic inoculum. Put plainly: Acetate Toxicity Assays (ATA). The class given is cell-based. The method, then: For the BMP tests, iBA provided the sole source of substrate over a range of conditions. Feed controls were prepared at organic loadings that spanned the lower and upper range of loadings used in the ATA and BMP tests, and gas production was monitored. Samples were prepared in triplicate with the seed concentration for all test bottles being 2000 mg/L. The feed control and ATA biodegradable synthetic feed composition contained 4000 mg/L acetate and 2000 mg/L propionate. The inorganic nutrient media used was similar to media presented in Table 5.1 of […], Anaerobic Biotechnology for Industrial […], Vanderbilt University, […], Nashville, p 115 (1996). The bottles were maintained at a temperature of 35° C.

Data set [3] is described as follows: Liquid-liquid extraction of isobutyric acid from fermentation medium into COFA at different pH. The class given is physicochemical.
Experimental: (§1) The samples were subsequently incubated in a shaker at 30° C. and 300 rpm for 30 minutes. […] Finally, the aqueous broth samples were withdrawn from the upper section of the bottom phase for further analysis. […] The flow rate was 0.60 ml/min, the column temperature 40° C., the injection volume 10 ul and the run time was 58 minutes.
Data set [4] is described as follows: Liquid-liquid extraction of isobutyric acid from fermentation medium into oleic acid at different pH. The format is physicochemical.
Experimental: as §1
A short description of data set [5]: Liquid-liquid extraction of carboxylic acids from fermentation medium into oleyl alcohol at different pH. The class given is physicochemical.
Experimental: as §1
A short description of data set [6]: Liquid-liquid extraction of isobutyric acid from fermentation medium into SOFA at different pH. The format is physicochemical.
Experimental: as §1
[7] abbreviates: 2 mL extractant on 2 mL aqueous solution.
[8] abbreviates: 6 mL extractant on 2 mL aqueous solution.
[9] abbreviates: 10 mL extractant on 2 mL aqueous solution.
[10] abbreviates: pH 3.14, ISPR ratio (Aq):(Oleyl Alcohol) 1:1.
The mark [11] stands for this setting: pH 3.14, ISPR ratio (Aq):(Oleyl Alcohol) 1:3.
[12] abbreviates: pH 4.94, ISPR ratio (Aq):(Oleyl Alcohol) 1:1.
Where [13] appears, read: pH 4.94, ISPR ratio (Aq):(Oleyl Alcohol) 1:3.
[14] abbreviates: pH 7.24, ISPR ratio (Aq):(Oleyl Alcohol) 1:1.
[15] abbreviates: pH 7.24, ISPR ratio (Aq):(Oleyl Alcohol) 1:3.

Experimental for isobutanologen PNY 2242: An isobutanologen was cultivated in 20 ml of corn mash in 125 ml shake flasks with a simultaneous saccharification and fermentation (SSF) process. […] The culture was incubated at 30° C. and 250 rpm for 24 hours in an Innova Laboratory Shaker (New Brunswick Scientific, Edison, N.J.). […] Resulting stage 2 cultures with total culture volume of 103 ml were incubated again at 250 rpm for 24 hours. […] Cultures were spun down at 9500 rpm for 20 minutes and supernatants were discarded. Cell pellet was re-suspended into 20 ml of production medium in the tubes.
The 20 ml cell cultures in the tubes were transferred into the shake flasks pre-filled with solvent. 50 μl of distillase added, and the shake flasks were closed with a close lid (for low oxygen/anaerobic cultivation). The flasks were subsequently incubated at 30° C. and 250 rpm for 48 hours. Each flask was sampled twice a day to measure glucose via YSI. After 48 hours, 2 ml aqueous and 1 ml of solvent phase were saved for exo-metabolite, starch and extractant analysis.
Extracellular compound analysis in supernatant was accomplished by HPLC. […] Flow rate was 0.60 ml/min, column temperature 40° C., injection volume 10 ul and run time 58 min.
For starch analysis, culture samples were centrifuged for 5 minutes at 14,000 rpm and solvent atop the aqueous layer was removed. Remaining aqueous fraction was re-suspended, thoroughly mixed and 0.30 g of the mixture transferred into previously weighted vials. […] Finally the samples were incubated for 5 minutes at 99° C. and 1100 rpm, transferred to previously weighted 10 mL volumetric flasks, filled at level with water, weights were recorded, 400 μl of the solution filtered through a centrifugal filter and subjected to HPLC analysis.
The cultures contained a second layer with either oleyl alcohol (OA) or an OA phase containing different portions of either trioctylamine (TOA) or aliquate for liquid-liquid extraction (LLX).

`CCCCCCCC/C=C\CCCCCCCCO` [OA, oleyl alcohol]: in data set [1] (setting [7]), the “Acetic Acid (mM), aqueous concentration after addition of extractant” value (“Acetic Acid (mM), aqueous concentration” below) was determined as 13.13 mM; the “Formic Acid (mM), aqueous concentration after addition of extractant” value (“Formic Acid (mM), aqueous concentration” for short) turned out to be 11.96 mM; the “Isobutanol (mM), aqueous concentration after addition of extractant” value (from here on “Isobutanol (mM), aqueous concentration”) is listed as 3.01 mM; the “Isobutyric Acid (mM), aqueous concentration after addition of extractant” value (“Isobutyric Acid (mM)” for short) stood at 8.01 mM. In data set [1] (setting [7]), the “MES (AU), aqueous concentration after addition of extractant” value (“MES (AU), aqueous concentration” for short) is recorded as 6954908 AU and the “Phosphate (AU), aqueous concentration after addition of extractant” value (from here on “Phosphate (AU), aqueous concentration”) is on record as 656297 AU. Also, in data set [1] (setting [8]), the “Acetic Acid (mM), aqueous concentration” value was found to be 12.98 mM; the “Formic Acid (mM), aqueous concentration” value came out at 12.68 mM; the “Isobutanol (mM), aqueous concentration” value was determined as 1.19 mM; the “Isobutyric Acid (mM)” value was 4.95 mM. Besides, in data set [1] (setting [8]), the “MES (AU), aqueous concentration” value worked out at 7135183 AU and the “Phosphate (AU), aqueous concentration” value turned out to be 673645 AU. In [1] (setting [9]), the “Acetic Acid (mM), aqueous concentration” value was 12.73 mM; the “Formic Acid (mM), aqueous concentration” value was determined as 13.05 mM; the “Isobutanol (mM), aqueous concentration” value amounted to 0.77 mM; the “Isobutyric Acid (mM)” value came out at 3.57 mM. For the same compound, in data set [1] (setting [9]), the “MES (AU), aqueous concentration” value was found to be 7168671 AU and the “Phosphate (AU), aqueous concentration” value was 676874 AU. For the same compound, in the data set on isobutanologen PNY 2242 (48 hours, extractant as LLX layer), the “performance of the butanologen (glucose consumption, isobutanol production, FIG. 4)” value is reported as “performed best”. Besides, the “C (g/c) [g/L], free glucose during the SSF” value in the data set with isobutanologen PNY 2242 (EPT 3.67 h) is reported as 37.2 g/L. The “C (g/c) [g/L], free glucose during the SSF” value in the data set on isobutanologen PNY 2242 (EPT 21.00 h) turned out to be 34.60 g/L. The “C (g/c) [g/L], free glucose during the SSF” value in the data set on isobutanologen PNY 2242 (EPT 28.00 h) is reported as 29.7 g/L. In addition, the “C (g/c) [g/L], free glucose during the SSF” value with isobutanologen PNY 2242 (EPT 48.00 h) is 1.20 g/L.

With `CCCCCCCCN(CCCCCCCC)CCCCCCCC` [TOA, tru-n-octylamine], the “efficiency of extraction of isobutyric acid” value (100 mM extractant in oleyl alcohol) is on record as “less efficient”.

With `CC(C)C(=O)O` [Isobutyric Acid, isobutyric acid], the “Partition coefficients (P) [HA] org/aq” value in data set [2] is listed as 1.91 mol/mol. Moreover, the “Cumulative Gas Production (% Theoretical Max)” value was determined as 18 % Theoretical Max with anaerobic inoculum (ATA-syn 550 ppm iBA, Day 2); 45 % Theoretical Max with anaerobic inoculum (ATA-syn 550 ppm iBA, Day 4); 65 % Theoretical Max with anaerobic inoculum (ATA-syn 550 ppm iBA, Day 6); 82 % Theoretical Max in the data set with anaerobic inoculum (ATA-syn 550 ppm iBA, Day 10); 85 % Theoretical Max with anaerobic inoculum (ATA-syn 550 ppm iBA, Day 12); 86 % Theoretical Max with anaerobic inoculum (ATA-syn 550 ppm iBA, Day 15). Also, the “Cumulative Gas Production (% Theoretical Max)” value is 14 % Theoretical Max in the data set on anaerobic inoculum (ATA-syn 825 ppm iBA, Day 2); 36 % Theoretical Max with anaerobic inoculum (ATA-syn 825 ppm iBA, Day 4); 56 % Theoretical Max with anaerobic inoculum (ATA-syn 825 ppm iBA, Day 6); 82 % Theoretical Max in the data set with anaerobic inoculum (ATA-syn 825 ppm iBA, Day 10); 83 % Theoretical Max with anaerobic inoculum (ATA-syn 825 ppm iBA, Day 12); 84 % Theoretical Max in the data set on anaerobic inoculum (ATA-syn 825 ppm iBA, Day 15). In addition, the “Cumulative Gas Production (% Theoretical Max)” value in the data set on anaerobic inoculum (ATA-syn 1100 ppm iBA, Day 2) was 14 % Theoretical Max; in the data set with anaerobic inoculum (ATA-syn 1100 ppm iBA, Day 4), 36 % Theoretical Max; with anaerobic inoculum (ATA-syn 1100 ppm iBA, Day 6), 51 % Theoretical Max; in the data set on anaerobic inoculum (ATA-syn 1100 ppm iBA, Day 10), 82 % Theoretical Max; in the data set with anaerobic inoculum (ATA-syn 1100 ppm iBA, Day 12) it was 85 % Theoretical Max; in the data set with anaerobic inoculum (ATA-syn 1100 ppm iBA, Day 15), 85 % Theoretical Max. For the same compound, in the data set with anaerobic inoculum (iBA concentrations of up to 1100 parts per million (ppm)), the “inhibition of gas generation” value is given as “did not inhibit gas generation”. In addition, the “Conc. Isobutyric Acid (%)” value is 29.81% in data set [3] (pH 4.08, ISPR ratio (Aq):(COFA) 1:1); 12.81% in [3] (pH 4.08, ISPR ratio (Aq):(COFA) 1:3); 52.89% in data set [3] (pH 4.82, ISPR ratio (Aq):(COFA) 1:1); 30.00% in data set [3] (pH 4.82, ISPR ratio (Aq):(COFA) 1:3); 70.40% in [3] (pH 6.95, ISPR ratio (Aq):(COFA) 1:1); 31.27% in data set [3] (pH 6.95, ISPR ratio (Aq):(COFA) 1:3). Besides, the “Conc. Isobutyric Acid (%)” value in data set [4] (pH 4.08, ISPR ratio (Aq):(Oleic Acid) 1:1) was 29.60%; in [4] (pH 4.08, ISPR ratio (Aq):(Oleic Acid) 1:3), 13.00%; in data set [4] (pH 4.82, ISPR ratio (Aq):(Oleic Acid) 1:1), 49.16%; in data set [4] (pH 4.82, ISPR ratio (Aq):(Oleic Acid) 1:3), 23.36%; in [4] (pH 6.95, ISPR ratio (Aq):(Oleic Acid) 1:1), 67.35%; in data set [4] (pH 6.95, ISPR ratio (Aq):(Oleic Acid) 1:3) it was 28.60%. The “Conc. Isobutyric Acid (%)” value was 31.37% in data set [6] (pH 3.93, ISPR ratio (Aq):(SOFA) 1:1); 12.68% in data set [6] (pH 3.93, ISPR ratio (Aq):(SOFA) 1:3); 53.76% in data set [6] (pH 4.92, ISPR ratio (Aq):(SOFA) 1:1); 27.63% in data set [6] (pH 4.92, ISPR ratio (Aq):(SOFA) 1:3); 74.48% in data set [6] (pH 6.64, ISPR ratio (Aq):(SOFA) 1:1); 33.23% in [6] (pH 6.64, ISPR ratio (Aq):(SOFA) 1:3). This compound returned a KE (+A336, oleyl alcohol with 100 mM of Aliquat 336) of 0.036; a KE (+TBA, oleyl alcohol with 100 mM of tributyl phosphate) of 0.000; a KE (+TOA, oleyl alcohol with 100 mM of trioctyl amine) of 0.010. Moreover, the “Conc. of acid in aqueous broth after extraction” value (“Conc. of acid in aqueous broth” below) in [5] (setting [10]) came to 19770 µM; in [5] (setting [11]), 8100 µM; in [5] (setting [12]), 46140 µM; in [5] (setting [13]) it was 30830 µM; in data set [5] (setting [14]) it was 93360 µM; in data set [5] (setting [15]) it was 91950 µM.

As for `CC(C)(O)CC(=O)O` [HMB], the “Conc. of acid in aqueous broth” value amounted to 54070 µM in [5] (setting [10]); 40280 µM in data set [5] (setting [11]); 72000 µM in [5] (setting [12]); 71860 µM in [5] (setting [13]); 72460 µM in [5] (setting [14]); 73310 µM in data set [5] (setting [15]).

Take `CC(=O)O` [Acetic Acid, acetic acid]: the “Conc. of acid in aqueous broth” value in data set [5] (setting [10]) is 140040 µM; in data set [5] (setting [11]), 106430 µM; in [5] (setting [12]), 162730 µM; in data set [5] (setting [13]) it was 159230 µM; in data set [5] (setting [14]) it was 169150 µM; in [5] (setting [15]), 173630 µM.

Consider `CC(C)CO` [Isobutanol, 2-methyl-1-propanol], for which the “Partition coefficients (P) [HA] org/aq” value in data set [2] is 2.97 mol/mol.
